Data reported in US11420947B2, “(S)-n-hydroxy-2-(2-(4-methoxyphenyl)butanamido)thiazole-5-carboxamide and pharmaceutically acceptable salts thereof” (TRANSLATIONAL DRUG DEVELOPMENT, LLC, priority 2018, dated 2022).

Assay: Tumor uptake and retention (FIG. 2)
Format: in vivo
Text: Volume of distribution is one of the most important pharmacokinetic properties of a drug candidate and for an anticancer drug can result in increased drug distribution to the tumor.

**Q.** Which “tumor uptake and retention” value does the source give for `CC[C@H](C(=O)Nc1ncc(C(=O)NO)s1)c1ccc(OC)cc1` [#1a, (S)—N-hydroxy-2-(2-(4-methoxyphenyl)butanamido)thiazole-5-carboxamide] here?
**A.** The value was “preferential and significant tumor uptake and retention”.
